Non-standard residues stand in square brackets, D forms with d. Residues, ends and D or L forms follow the SMILES beside them. *: point of attachment. Ala(1-Adamantyl) = N[C@@H](CC12CC3CC(CC(C3)C1)C2)C(=O)O; Sta = CC(C)C[C@H](N)[C@@H](O)CC(=O)O; Cbz = O=C(OCc1ccccc1)*; Boc = CC(C)(C)OC(=O)*
Experiments:
[1] = biological target: Renin (Sus scrofa); assay: In vitro inhibitory activity against hog plasma renin
[2] = biological target: Renin (Sus scrofa); assay: Inhibition of hog […] plasma renin activity

| SMILES | IC50 [1] | IC50 [2] |
| --- | --- | --- |
| COC(=O)C[C@H](O)[C@H](CC(C)C)NC(=O)[C@H](C)NC(=O)C[C@H](O)[C@H](CC(C)C)NC(=O)[C@H](Cc1c[nH]cn1)NC(=O)[C@H](CC12CC3CC(CC(C3)C1)C2)NC(=O)OC(C)(C)C [4-(2-{4-[2-(3-Adamantan-1-yl-2-tert-butoxycarbonylamino-propionylamino)-3-(1H-imidazol-4-yl)-propionylamino]-3-hydroxy-6-methyl-heptanoylamino}-propionylamino)-3-hydroxy-6-methyl-heptanoic acid methyl ester] (Boc-[Ala(1-Adamantyl)]H[Sta]A[Sta]-OMe) | 600 nM |  |
| COC(=O)C[C@H](O)[C@H](CC(C)C)NC(=O)[C@H](C)NC(=O)C[C@H](O)[C@H](CC(C)C)NC(=O)[C@H](Cc1ccccc1)NC(=O)[C@H](Cc1ccccc1)NC(=O)OC(C)(C)C [4-(2-{4-[2-(2-tert-Butoxycarbonylamino-3-phenyl-propionylamino)-3-phenyl-propionylamino]-3-hydroxy-6-methyl-heptanoylamino}-propionylamino)-3-hydroxy-6-methyl-heptanoic acid methyl ester] | 52 nM |  |
| COC(=O)C[C@H](O)[C@H](CC(C)C)NC(=O)[C@H](C)NC(=O)C[C@H](O)[C@H](CC(C)C)NC(=O)[C@@H](NC(=O)[C@H](Cc1c[nH]c2ccccc12)NC(=O)OCc1ccccc1)C(C)C [4-[2-(4-{2-[2-Benzyloxycarbonylamino-3-(1H-indol-3-yl)-propionylamino]-3-methyl-butyrylamino}-3-hydroxy-6-methyl-heptanoylamino)-propionylamino]-3-hydroxy-6-methyl-heptanoic acid methyl ester] (Cbz-WV[Sta]A[Sta]-OMe) |  | 15 nM |
